# PubChem BioAssay (NCI)
#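 All cell lines were grown in 96-well plates and treated with compound for 48 hours. GI50 is the concentration that inhibits growth by half. Definition used: TGI = concentration required for complete inhibition of growth.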
# Tests used:
# Test in all cases: DTP human tumour cell line panel, 48 h
# [1] = system: TK-10 renal
# [2] = system: K-562 leukemia
# [3] = system: OVCAR-8 ovarian
# [4] = system: HT29 colon
# [5] = system: CAKI-1 renal
# [6] = system: MDA-MB-231 breast
# [7] = system: OVCAR-5 ovarian
# [8] = system: UACC-62 melanoma
# [9] = system: NCI-H226 lung
# [10] = system: UO-31 renal
# [11] = system: HOP-62 NSCLC
# [12] = system: SR leukemia
# [13] = system: SK-MEL-5 melanoma
# [14] = system: COLO 205 colon
# [15] = system: PC-3 prostate
# [16] = system: RXF 393 renal
# [17] = system: SNB-19 CNS
# [18] = system: OVCAR-3 ovarian
# [19] = system: SK-MEL-28 melanoma
# [20] = system: HL-60(TB) leukemia
# [21] = system: 786-0 renal
# [22] = system: ACHN renal
# [23] = system: T-47D breast
# [24] = system: HOP-92 NSCLC
# [25] = system: LOX IMVI melanoma
# [26] = system: EKVX NSCLC
# [27] = system: SK-MEL-2 melanoma
# [28] = system: M14 melanoma
# [29] = system: MALME-3M melanoma
# [30] = system: HS 578T breast
# [31] = system: U251 CNS
# [32] = system: SN12C renal
# [33] = system: HCC-2998 colon
# [34] = system: NCI-H522 lung
# [35] = system: CCRF-CEM leukemia
# [36] = system: HCT-15 colon
# [37] = system: A549 NSCLC
# [38] = system: MCF7 breast
# [39] = system: UACC-257 melanoma
# [40] = system: NCI-H23 lung
# [41] = system: RPMI-8226 leukemia
# [42] = system: SF-295 CNS
# [43] = system: OVCAR-4 ovarian
# [44] = system: SW-620 colon
# [45] = system: SNB-75 CNS
# [46] = system: MDA-MB-435
# [47] = system: SF-539 CNS
# [48] = system: HCT-116 colon
# [49] = system: KM12 colon
# [50] = system: SF-268 CNS
# [51] = system: NCI-H460 lung
# [52] = system: DU-145 prostate
# [53] = system: A498 renal
# [54] = system: SK-OV-3 ovarian
# [55] = system: MOLT-4 leukemia
# [56] = system: IGROV1 ovarian
# [57] = system: NCI/ADR-RES ovarian
smiles,measurement,setting,value
CCCCNCC(O)c1cc2c(Cl)cc(Cl)cc2c2cc(C(F)(F)F)ccc12 (stereo not drawn),GI50,[1],1980 nM
same,TGI,[1],3510 nM
same,GI50,[2],1610 nM
same,TGI,[2],3410 nM
same,GI50,[3],1890 nM
same,TGI,[3],3860 nM
same,GI50,[4],1770 nM
same,TGI,[4],3230 nM
same,GI50,[5],1710 nM
same,TGI,[5],3440 nM
same,GI50,[6],1600 nM
same,TGI,[6],3270 nM
same,GI50,[7],1560 nM
same,TGI,[7],3080 nM
same,GI50,[8],1860 nM
same,TGI,[8],3510 nM
same,GI50,[9],1840 nM
same,TGI,[9],3720 nM
same,GI50,[10],1340 nM
same,TGI,[10],2830 nM
same,GI50,[11],1770 nM
same,TGI,[11],3280 nM
same,GI50,[12],1420 nM
same,TGI,[12],3930 nM
same,GI50,[13],1710 nM
same,TGI,[13],3100 nM
same,GI50,[14],1780 nM
same,TGI,[14],3310 nM
same,GI50,[15],1580 nM
same,TGI,[15],3030 nM
same,GI50,[16],1480 nM
same,TGI,[16],2850 nM
same,GI50,[17],1820 nM
same,TGI,[17],3510 nM
same,GI50,[18],1950 nM
same,TGI,[18],3460 nM
same,GI50,[19],1900 nM
same,TGI,[19],3410 nM
same,GI50,[20],1770 nM
same,TGI,[20],3610 nM
same,GI50,[21],1510 nM
same,TGI,[21],3430 nM
same,GI50,[22],1740 nM
same,TGI,[22],3450 nM
same,GI50,[23],1740 nM
same,TGI,[23],3800 nM
same,GI50,[24],1200 nM
same,TGI,[24],2710 nM
same,GI50,[25],1660 nM
same,TGI,[25],3600 nM
same,GI50,[26],1820 nM
same,TGI,[26],3610 nM
same,GI50,[27],2200 nM
same,TGI,[27],3880 nM
same,GI50,[28],1810 nM
same,TGI,[28],3380 nM
same,GI50,[29],2010 nM
same,TGI,[29],4260 nM
same,GI50,[30],1590 nM
same,TGI,[30],3670 nM
same,GI50,[31],1720 nM
same,TGI,[31],3200 nM
same,GI50,[32],1850 nM
same,TGI,[32],3560 nM
same,GI50,[33],1490 nM
same,TGI,[33],2940 nM
same,GI50,[34],1750 nM
same,TGI,[34],3350 nM
same,GI50,[35],2500 nM
same,TGI,[35],5170 nM
same,GI50,[36],1790 nM
same,TGI,[36],4140 nM
same,GI50,[37],1820 nM
same,TGI,[37],3400 nM
same,GI50,[38],1480 nM
same,TGI,[38],2960 nM
same,GI50,[39],1830 nM
same,TGI,[39],3510 nM
same,GI50,[40],1590 nM
same,TGI,[40],3320 nM
same,GI50,[41],2070 nM
same,TGI,[41],4720 nM
same,GI50,[42],1850 nM
same,TGI,[42],3670 nM
same,GI50,[43],1930 nM
same,TGI,[43],3770 nM
same,GI50,[44],1690 nM
same,TGI,[44],3220 nM
same,GI50,[45],1700 nM
same,TGI,[45],3230 nM
same,GI50,[46],1800 nM
same,TGI,[46],3560 nM
same,GI50,[47],1690 nM
same,TGI,[47],3440 nM
same,GI50,[48],1530 nM
same,TGI,[48],3050 nM
same,GI50,[49],1930 nM
same,TGI,[49],3450 nM
same,GI50,[50],1840 nM
same,TGI,[50],3710 nM
same,GI50,[51],1680 nM
same,TGI,[51],3300 nM
same,GI50,[52],1890 nM
same,TGI,[52],3360 nM
same,GI50,[53],1360 nM
same,TGI,[53],2700 nM
CNc1ccc(C(=O)CC(O)CCC(C)C2OC(=O)CC(O)CC(=O)CC(O)CC(O)CC(O)CC(O)CC3(O)CC(O)C(C(=O)NCCN(C)C)C(CC(OC4OC(C)C(O)C(NC(=O)CN5CCN(CCO)CC5)C4O)/C=C/C=C/C=C/C=C\C=C/C=C/C=C/C2C)O3)cc1 (stereo not drawn),GI50,[1],143 nM
same,GI50,[2],163 nM
same,TGI,[2],1350 nM
same,GI50,[3],2500 nM
same,TGI,[3],> 50000 nM
same,GI50,[4],931 nM
same,TGI,[4],> 11600 nM
same,GI50,[5],192 nM
same,TGI,[5],> 18700 nM
same,GI50,[6],832 nM
same,TGI,[6],2910 nM
same,GI50,[7],3590 nM
same,TGI,[7],> 30600 nM
same,GI50,[10],2170 nM
same,TGI,[10],> 50000 nM
same,GI50,[11],1170 nM
same,TGI,[11],6210 nM
same,GI50,[14],508 nM
same,TGI,[14],1810 nM
same,GI50,[15],296 nM
same,TGI,[15],> 50000 nM
same,GI50,[16],> 50000 nM
same,TGI,[16],> 50000 nM
same,GI50,[17],1620 nM
same,TGI,[17],> 50000 nM
same,GI50,[18],768 nM
same,TGI,[18],3030 nM
same,GI50,[21],197 nM
same,TGI,[21],> 50000 nM
same,GI50,[22],1120 nM
same,TGI,[22],2440 nM
same,GI50,[23],1080 nM
same,TGI,[23],> 50000 nM
same,TGI,[24],> 50000 nM
same,GI50,[27],19900 nM
same,TGI,[27],> 50000 nM
same,GI50,[28],494 nM
same,TGI,[28],1510 nM
same,GI50,[29],96.6 nM
same,TGI,[29],300 nM
same,GI50,[30],> 50000 nM
same,TGI,[30],> 50000 nM
same,GI50,[33],1910 nM
same,TGI,[33],4260 nM
same,GI50,[54],2380 nM
same,TGI,[54],> 50000 nM
same,GI50,[36],2920 nM
same,TGI,[36],> 50000 nM
same,GI50,[38],219 nM
same,TGI,[38],> 50000 nM
same,GI50,[39],935 nM
same,TGI,[39],2790 nM
same,GI50,[40],14800 nM
same,TGI,[40],47300 nM
same,GI50,[41],> 50000 nM
same,TGI,[41],> 50000 nM
same,GI50,[42],706 nM
same,TGI,[42],1640 nM
same,GI50,[43],1650 nM
same,TGI,[43],> 17400 nM
same,GI50,[44],728 nM
same,TGI,[44],> 50000 nM
same,GI50,[45],> 22300 nM
same,TGI,[45],> 50000 nM
same,GI50,[46],692 nM
same,TGI,[46],1910 nM
same,GI50,[48],546 nM
same,TGI,[48],2130 nM
same,GI50,[49],165 nM
same,TGI,[49],490 nM
same,GI50,[50],193 nM
same,TGI,[50],> 50000 nM
same,GI50,[51],242 nM
same,TGI,[51],1740 nM
same,GI50,[55],424 nM
same,TGI,[55],> 21400 nM
same,GI50,[56],> 50000 nM
same,TGI,[56],> 50000 nM
same,GI50,[52],161 nM
same,TGI,[52],610 nM
same,GI50,[57],2070 nM
same,TGI,[57],14200 nM
